Assay results reported in patent US8017350B2, “Glimepiride- and insulin-induced glycosylphosphatidylinositol-specific phospholipase C regulation” (Sanofi-Aventis Deutschland GmbH, priority 2004, dated 2011).
pIC50: −log10 of the molar value.

What was measured:
[1] = Stability of compound 3; format: physicochemical; settings: 4° C.
Method: As starting material, racemic 1,4,5,6-tetra-O-benzyl-myo-inositol (hereinafter: compound 1) was prepared by a procedure as disclosed in “Zhai, H.-X. et al. (1995) Tetrahedron Lett. 36: 7403-7406”. Compound 1 was then phosphorylated with dodecylphosphonic dichloride in the presence of triethylamine and dimethyl-aminopyridine to yield tetra-O-benzyl-myo-inositol-1,2-cyclo-dodecylphosphonic acid (hereinafter: compound 2). By catalytic hydrogenation with 10% Pd on charcoal, compound 2 was debenzylated to myo-inositol-1,2-cyclo-dodecylphosphonic acid (hereinafter: compound 3 or GPI-2350) as a mixture of diastereomers. For synthesis of compound 2 (FIG. 1), 1 g (1.8 mmol) of compound 1 was dissolved in 60 ml of methylene chloride and 1 ml of triethylamine; 200 mg dimethyl-aminopyridine and 1 g ([…]) of dodecylphosphonic dichloride were added. This reaction solution was allowed to stand (45 min, room temperature). Then 50 ml of ethyl acetate were added and the mixture was filtered on silica gel. After concentration of the solvent, the residue was purified by flash chromatography (n-heptane/ethyl acetate, 1/1, by vol.). Yield of compound 2: 580 mg (43%) of a white amorphous solid. TLC: n-heptane/ethyl acetate (1/1, by vol.), Rf=0.7. MS: (M+Li)^+=761.4, calculated […], M=754.9. […] MS: (M+Li)^+=401.2, calculated C18H35O7P, M=394.4.

[2] = tested on: GPI-PLC, hcDIGs of rat adipocytes; format: biochemical; settings: isolated hcDIGs; concentration-dependent
[3] = tested on: rat adipocyte GPI-PLC; test: adipocyte GPI-PLC assay (plasma membranes or hc/lcDIGs, AChE substrate, TX-114 partitioning); format: biochemical
Method: GPI-PLD (rat serum) was assayed according to “Hari et al. (1997) Biochim. Biophys. Acta 1355: 293-302” by incubation with 10 μl of human placental aP solution (100 U/ml in 10 mM Hepes/NaOH, pH 7.0, 150 mM NaCl) in 100 μl of 200 mM Tris/maleate (pH 7.0) and 1% Nonidet P-40 for 10 min at 37° C. and subsequent termination of the reaction by addition of 0.4 ml of ice-cold stop buffer (10 mM Hepes/NaOH, pH 7.0, 150 mM NaCl, 0.1 mM MgCl2 and 0.01 mM zinc acetate). GPI-PLC (T. brucei) was assayed as described in “Mensa-Wilmot et al. (1995) Methods Enzymol. 250: 641-655” by incubation with 5 μl of human placental aP solution (see above) in 50 μl of 50 mM Tris/HCl (pH 8.0), 0.25% Nonidet P-40 and 5 mM EDTA for 30 min at 37° C. and subsequent termination of the reaction by addition of 0.45 ml of stop buffer. PI-PLC (B. cereus) and adipocyte GPI-PLC (5-25 μg plasma membranes or hc/lcDIGs) were assayed by incubation with 10 μl of bovine erythrocyte acetylcholinesterase (AChE) solution (12 U/ml in 10 mM Tris/HCl, pH 7.4, 144 mM NaCl, 0.1% TX-100) in 100 μl of 20 mM Hepes/KOH (pH 7.8), 144 mM NaCl, 0.1% TX-100, 0.2 mM MgCl2 for 1 h at 25° C. and subsequent termination by adding 5 μl of glacial acetic acid and then 0.4 ml of 10 mM Tris/HCl (pH 7.4), 144 mM NaCl. Each reaction mixture was subjected to TX-114 partitioning (see below).
Pelleted hc/lcDIGs (10-50 μg protein) or (G)PI-PLC reaction mixtures (0.5 ml) were separated into amphiphilic and hydrophilic proteins using partitioning between TX-114-enriched and depleted phases according to “Bordier, C., (1981) J. Biol, Chem. […]” by suspending in 1 ml of ice-cold TX-114 (1%), 25 mM Tris/HCl (pH 7.4), 144 mM NaCl or mixing with 0.5 ml of ice-cold TX-114 (2%), respectively. After incubation for 1 h on ice, the mixture was layered onto a cushion of 0.4 ml of 0.25 M sucrose and 25 mM Tris/HCl (pH 7.4) on ice. Phase separation was induced by warming up to 37° C. and subsequent centrifugation (10,000×g, 1 min). After re-extraction of the lower TX-114-enriched phase, aliquots of the pooled upper TX-114-depleted phase were measured for 5′-Nuc, aP and AChE activity or precipitated (15 polyethylene glycol 4000) for SDS-PAGE analysis.
Table 1: GPI-PLC of hcDIGs from rat adipocytes, GPI-PLC from T. brucei and PI-PLC from B. cereus were incubated with solubilized and partially purified bovine erythrocyte AChE or human placental aP in the absence or presence of increasing concentrations (0.05 μM-1 mM) of the inhibitors indicated under appropriate conditions (see Materials and Methods). Cleavage rate was calculated from the amount of hydrophilic AChE and aP activity recovered with the TX-114-depleted phase upon TX-114 partitioning. […]

In the case of `CCCCCCCCCCCCP1(=O)O[C@@H]2[C@H](O)[C@@H](O)[C@H](O)[C@@H](O)[C@@H]2O1` (stereo partly shown) [GPI-2350, myo-inositol-1,2-cyclo-dodecylphosphonic acid], the “stability as dried amorphous solid” value [1] was “as dried amorphous solid for years at 4 °C”, the “reduction of basal and glimepiride-/insulin-stimulated GPI-PLC activity” value [2] was “to lower than basal and similar levels” and the pIC50 ([3]; GPI-PLC of hcDIGs from rat adipocytes, inhibitor 0.05 μM-1 mM) was 6.30 to 6.70. The “lipolytic cleavage of AChE after washout” value ([3]; hcDIGs treated with 50 μM, reisolated, extensively washed, incubated without inhibitor) was “only low lipolytic cleavage”.
